{"source": "paper PMC4579270", "about": "“Identification and Characterization of an Irreversible Inhibitor of CDK2” (Chemistry & Biology, 2015)", "key": {"CDK2^D86A": {"biological_target": "T1, CDK2^D86A (Homo sapiens, UniProt P24941, D86A)", "T1 construct": "GST (N, cleaved yes); made in house; host or cells: Escherichia coli; phosphorylated in vitro by GST-CAK", "test": "ESI-MS of covalent adduct, mutant", "conditions": "CDK2^D86A/cyclin A, overnight incubation", "procedure": "(§1) These residues were individually mutated to an alanine, glutamate, or valine, respectively, and the resulting mutant CDK2/cyclin A complexes were analyzed by ESI-MS following overnight incubation with either NU6300 (exact mass 413.15) or DMSO (Figure S2 and Table S1).\n(§2) Figure S2, Related to Figure 3. Identification of the site of CDK2 modification by NU6300. (A-G) Single site CDK2 mutants CDK2D86A, CDK2K88E, and CDK2K89V identify the site of CDK2 modification by NU6300. These mutations change the CDK2 sequence to that of CDK7 and are known not to disrupt the CDK2 fold. Mass spectra of CDK2 mutants:\n(§3) (A), (D), CDK2D86A/cyclin A; (B), (E), CDK2K88E/cyclin A; (C), (F), CDK2K89V/cyclin A (3 mg/mL) pre-incubated overnight in the absence/presence of NU6300. (A-C), positive controls, CDK2/cyclin A mutants assayed in the absence of NU6300; (D-F), CDK2/cyclin A mutants pre-incubated with NU6300. For each mutant, the experimentally determined and […]\n(§4) (G) Protein kinase activity of authentic CDK2 and single site CDK2 mutants following incubation with NU6300 or NU6310. Samples were taken at the indicated number of minutes after initiation of the reaction. Note that compared to authentic CDK2, the single site Lys88 and Lys89 mutants have a slower rate of reaction (Compare LHS panels). […]"}, "CDK2^K89V": {"biological_target": "T2, CDK2^K89V (Homo sapiens, UniProt P24941, K89V)", "T2 construct": "GST (N, cleaved yes); made in house; host or cells: Escherichia coli; phosphorylated in vitro by GST-CAK", "test": "ESI-MS of covalent adduct, mutant", "conditions": "CDK2^K89V/cyclin A, overnight incubation", "procedure": "as §1, §2, §3, §4"}, "CDK2-Cyclin A": {"biological_target": "CDK2-Cyclin A (Homo sapiens, UniProt P24941)", "test": "ESI-MS of covalent adduct", "parameters": "made in house; host or cells: Escherichia coli (CDK2 co-expressed with S. cerevisiae CAK1)", "conditions": "wild-type CDK2/cyclin A, overnight incubation, vs control", "procedure": "To determine whether NU6300 binds covalently to CDK2, recombinant CDK2/cyclin A was incubated overnight with NU6300 and then analyzed by electrospray ionization mass spectrometry (ESI-MS) (Figure S1A). […]\nProtein expression and purification\nSite-directed mutagenesis of CDK2 was performed using the QuikChange II kit (Stratagene) following the manufacturer’s instructions and verified by DNA sequencing.\nWild-type CDK2 phosphorylated at Thr160, untagged human cyclin A2 (residues 174-432), S. cerevisiae GST–CAK, GST–3C-protease and GST–pRb (residues 792–928) were expressed and purified as previously described (Brown et al., 1999a; Brown et al., 1999b; Welburn and Endicott, 2005). GST-CDK2 mutants were expressed and purified as described (Welburn and Endicott, 2005) and subsequently phosphorylated in vitro by GST-CAK essentially as described in (Morris et al., 2002) except that multiple CAK aliquots were required to enhance the levels of CDK2 Thr160 phosphorylation. […]\nCDK2/cyclin A (200 µM) was incubated overnight with 1 mM inhibitor or DMSO, and then dialysed for 8 h with regular replacement of dialysis buffer into HEPES-buffered saline (50 mM HEPES, pH 7.5, 250 mM NaCl, 0.02% MTG). […] Reactions were stopped by addition of SDS-PAGE loading buffer and analyzed by SDS-PAGE. […]"}}, "data": [{"smiles": "C=CS(=O)(=O)c1ccc(Nc2nc(OCC3CCCCC3)c3nc[nH]c3n2)cc1", "note": "[NU6300, 6-(cyclohexylmethoxy)-N-(4-(vinylsulfonyl)phenyl)-9H-purin-2-amine]", "values": [{"measurement": "mass added to major CDK2 species (ESI-MS)", "setting": "CDK2^D86A", "result": 414, "unit": "Da"}, {"measurement": "mass added to major CDK2 species (ESI-MS)", "setting": "CDK2^K89V", "result": "no additional mass"}, {"measurement": "increase in the mass of CDK2 (ESI-MS)", "setting": "CDK2-Cyclin A", "result": 414, "unit": "Da"}]}]}
